From patent publication US8853263B2, “Co-therapy for the treatment of epilepsy and related disorders” (Janssen Pharmaceutica NV, priority 2006, dated 2014) come the findings set out here.

`CN(C)S(=O)(=O)NCC1COc2ccccc2O1` (racemic) [Compound #6, N-(2,3-Dihydro-benzo[1,4]dioxin-2-ylmethyl)-N′,N′dimethylsulfamide] registered a melting point of 76 to 78 °C. With `NS(=O)(=O)NCC1CCc2ccccc2O1` (stereo not shown) [Compound #10, Chroman-2-ylmethylsulfamide], the melting point lay in the range of 100 to 101 °C. Take `NS(=O)(=O)NCCC1COc2ccccc2O1` (stereo not shown) [Compound #16, 2-(2,3-Dihydro-benzo[1,4]dioxin-2-yl)-ethylsulfamide]: the melting point lay in the range of 101 to 103 °C. Next, `NS(=O)(=O)NC[C@H]1COc2cc(Cl)c(Cl)cc2O1` [Compound #29, (2S)-(−)-N-(6,7Dichloro-2,3-dihydro-benzo[1,4]dioxin-2-ylmethyl)-sulfamide]: 119 to 121 °C.
